# Data published in paper PMC7830597, “Derivatives of Tenuazonic Acid as Potential New Multi-Target Anti-Alzheimer’s Disease Agents” (Biomolecules, 2021).
# Tests used:
# [1] = Radical scavenging activity, DPPH method; details: DPPH assay; mean ± SEM of 3 independent experiments
# Protocol: Therefore, they were assayed for radical scavenging activity using the DPPH method.
# The final volume of the assay was 3.5 mL, corrected with MeOH to obtain different concentrations of our compound in each assay. The control solution was composed of MeOH and DPPH [14]. After 30 min, at RT, protected from light, the absorbance was measured at 517 nm (Perkin Elmer Lambda 35 spectrophotometer equipped with a temperature programmer PTP 1þ1 Peltier System, using thermostated (T¼25.0 ± 0.1 °C) 1 cm path length cells), against a blank solution (MeOH). The assays were performed in triplicate, in which the EC50 was obtained through the graphical representation of the %AA vs. the inhibitor concentration.
# [2] = biological target: T1, Aβ1-42 (Homo sapiens, UniProt P05067); assay: biochemical; details: Aβ1-42; inhibitor 40 µM; SEM < 10%; read-out: Inhib. Aβ Aggreg. Self-Induced
# T1 construct: Amyloid β peptide (Aβ1-42) was purchased from GeneCust as a lyophilised powder; purchased GeneCust
# Protocol: The anti-amyloidogenic activity of all the compounds was also evaluated in vitro, in the absence and in presence of Cu(II), by measuring the fluorescence emission of Thioflavin T (ThT).
# The spectrofluorimetric method, based on the fluorescence emission of thioflavin T (ThT), was used to study the Aβ1-42 aggregation inhibition. Firstly, Aβ1-42 was dissolved in HFIP (1,1,1,3,3,3-Hexafluoro-2-propanol) and kept overnight at room temperature in order to obtain a dry film. […] The ligand solutions were prepared with MeOH (1mg/mL) and further with phosphate buffer. […] As a control, a solution of 30 μL of phosphate buffer and 30 μL of Aβ1-42 was used to observe the aggregation without any inhibition, while the ligand assay solutions were composed of 20 μL of phosphate buffer, 30 μL of Aβ1-42 and 10 μL of ligand. The Cu-induced aggregation studies were similarly conducted, adding 10 μL of CuCl2 to induce the fibril aggregation. Each experiment was composed of an assay and a blank sample, where the blank sample lacks Aβ1-42, to monitor the effect of the compounds on the fluorescence emission. The samples were left to incubate in a CERTOMAT WR water bath for 24 h at 37 °C with shaking. After 24 h, a Glycine-NaOH buffer (pH = 8.5) containing ThT were added to each sample in a microplate. The fluorescence signal was monitored at 446 nm (λexc) and 486 nm (λem) with a Varian Cary Eclipse fluorimeter. Amyloid β peptide (Aβ1-42) was purchased from GeneCust as a lyophilised powder and stored at −20 °C [12, 13, 14].
# [3] = biological target: AChE of electroforus electricus (electric eel) (Electrophorus electricus, UniProt O42275); assay: biochemical; details: AChE from electric eel; mean of three independent experiments ± SEM; read-out: eeAChEi IC50
# Protocol: All new racemic compounds were tested as acetylcholinesterase inhibitors via an in vitro assay, following a modification of Ellman’s method in three independent experiments, using tacrine as a reference compound. […] Enzyme inhibition assays were performed using an adaptation of Ellman’s method. The readings were made in a spectrophotometer Perkin-Elmer Lambda 35 UV-Vis. Enzyme activity is measured by following the increase in yellow color produced from thiocholine when it reacts with dithiobisnitrobenzoate ion (DTNB). DTNB solution was obtained dissolving the reagent in HEPES buffer with salts, namely NaCl (50 mM) and MgCl2 (20 mM), obtaining a 3 mM solution. The enzyme AChE of electroforus electricus (electric eel) stock (500 U) was dissolved in TRIS 50 mM, pH 8.0, being posteriorly diluted to assay concentrations (5 U), obtaining an aliquot of 1 mL. The enzyme substrate used was acetylthiocholine iodide (AThCh, 16 mM), which was prepared with deionized water. The compounds tested were diluted in MeOH or DMSO (1 mg/mL, 2–7 × 10^−3 M), with further dilution, and five different concentrations were used for each compound, obtaining different percentages of AChE inhibition. The assay consists in the addition of HEPES (50 mM, pH = 8), inhibitor, AChE and MeOH in a 1 mL cuvette. The mixture was left to incubate for 15 min and, after that, AThCh and DTNB were added. The enzymatic reaction was followed through the measurements of absorbencies at 405 nm (Perkin Elmer Lambda 35 spectrophotometer equipped with a temperature programmer PTP 1þ1 Peltier System, using thermostated (T = 25.0 ± 0.1 °C) 1 cm path length cells) during 5 min. A blank solution containing all the components except the enzyme, that was substituted for equal volume of HEPES, was used. A control reaction was used using MeOH instead of the new compounds and was considered the reaction corresponding to 100% enzymatic activity. Each assay was performed in quintupled.
# T1 sequence (P05067 672-713 limits assumed): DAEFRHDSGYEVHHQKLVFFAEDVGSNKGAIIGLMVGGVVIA
# Sequence of AChE of electroforus electricus (electric eel) (O42275 24-633): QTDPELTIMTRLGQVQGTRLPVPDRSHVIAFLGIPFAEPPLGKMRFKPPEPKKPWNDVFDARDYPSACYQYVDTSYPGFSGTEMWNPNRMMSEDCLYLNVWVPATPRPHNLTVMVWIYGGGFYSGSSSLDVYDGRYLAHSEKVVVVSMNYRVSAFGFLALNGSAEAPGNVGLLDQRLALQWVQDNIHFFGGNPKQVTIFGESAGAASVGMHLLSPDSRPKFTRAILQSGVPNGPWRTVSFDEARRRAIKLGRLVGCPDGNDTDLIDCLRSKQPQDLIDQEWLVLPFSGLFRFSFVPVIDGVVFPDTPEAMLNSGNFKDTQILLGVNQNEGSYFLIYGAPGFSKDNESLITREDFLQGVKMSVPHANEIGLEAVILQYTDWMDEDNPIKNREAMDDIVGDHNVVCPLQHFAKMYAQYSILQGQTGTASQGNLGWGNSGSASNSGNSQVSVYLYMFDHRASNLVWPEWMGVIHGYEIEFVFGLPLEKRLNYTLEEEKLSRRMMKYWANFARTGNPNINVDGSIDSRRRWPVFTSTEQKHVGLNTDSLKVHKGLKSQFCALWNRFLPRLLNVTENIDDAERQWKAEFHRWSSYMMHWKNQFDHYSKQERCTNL
SMILES,Antioxidant Activity EC50 [1],inhibition at 40 µM [2] [%],IC50 [3] [µM]
"CCOC(=O)C1=C(O)C(Cc2ccccc2)NC1=O (stereo not drawn) [Compound 2, Ethyl 5-benzyl-4-hydroxy-2-oxo-2,5-dihydro-1H-pyrrole-3-carboxylate]",6.3 ± 0.1 µmol/µmol of DPPH,12.4,57 ± 4
"CCOC(=O)C1=C(O)C(C(C)C)NC1=O (stereo not drawn) [Compound 1, Ethyl 4-hydroxy-5-isopropyl-2-oxo-2,5-dihydro-1H-pyrrole-3-carboxylate]",10.8 ± 0.2 µmol/µmol of DPPH,32.9,42 ± 3
